Data as given in patent publication US10494384B2, “Urea peptoid boric acid compound, pharmaceutical composition thereof, preparation method therefor, and uses thereof” (Peking University, priority 2015, dated 2019).
Where two headings read alike, the source gives them in different places.

Legend:
[1] = biological target: T1, 20S proteasome extracted from rat liver (CT-L) (Rattus norvegicus, UniProt P18421+P28075); assay: inhibition of 20S proteasome, CT-L activity (fluorescent peptide); type: biochemical; details: for inhibition at 0.2 µM / inhibition at 2 µM / inhibition at 20 µM: rat liver 20S proteasome, 37° C., 1 h, read-out: inhibition rates (%) CT-L
T1 construct: 20S proteasome extracted from rat liver; from tissue; host or cells: rat liver
Procedure: (§1) 1 μg of 20S proteasome extracted from rat liver was incubated with a 100 μL solution containing various concentrations of the present compounds, 50 μM fluorescent peptides and 20 mM Tris-HCl at 37° C. for 1 h, respectively. […] 0.1% DMSO was used as a solvent control. Compared with the fluorescence of solvent control, an inhibition rate or IC50 value was calculated.

[2] = biological target: T2, 20S proteasome extracted from rat liver (PGPH) (Rattus norvegicus, UniProt P28073+Q9JHW0); assay: inhibition of 20S proteasome, PGPH activity (fluorescent peptide); type: biochemical; details: for inhibition at 0.2 µM / inhibition at 2 µM / inhibition at 20 µM: rat liver 20S proteasome, 37° C., 1 h, read-out: inhibition rates (%) PGPH
T2 construct: 20S proteasome extracted from rat liver; from tissue; host or cells: rat liver
Procedure: as §1

[3] = biological target: T3, 20S proteasome extracted from rat liver (T-L) (Rattus norvegicus, UniProt P40112+Q9JHW0); assay: inhibition of 20S proteasome, T-L activity (fluorescent peptide); type: biochemical; details: for inhibition at 0.2 µM / inhibition at 2 µM / inhibition at 20 µM: 37° C., 1 h, read-out: inhibition rates (%) T-L
T3 construct: 20S proteasome extracted from rat liver; from tissue; host or cells: rat liver
Procedure: as §1

[4] = tested on: Hela, human cervical carcinoma; assay: preliminary anti-tumor screening in vitro, MTT method; type: cell-based; details: read-out: inhibition rates (%) Hela
Procedure: (§2) The test methods used in this test example are routine methods for anti-tumor activities test in pharmaceutical area, for example, referring to the following reference: (J. Immunol Method, 1983, 65, 55).
(§3) Test models: A: MTT method (Hela, human cervical carcinoma); B: SRB method (BGC-823, […]); C: SRB method (MCF-7, breast cancer); D: SRB method (A549, human lung cancer); E: SRB method (PC3M1E8, prostate cancer).
(§4) Inhibition rates of the compounds were measured under concentrations of 0.1 μM, 1 μM or 10 μM.

[5] = tested on: A549, human lung cancer; assay: preliminary anti-tumor screening in vitro, SRB method; type: cell-based; details: read-out: inhibition rates (%) A549
Procedure: as §2, §3, §4

[6] = tested on: BGC-823, liver cancer; assay: as above; type: cell-based; details: Homo sapiens, read-out: inhibition rates (%) BGC-823
Procedure: as §2, §3, §4

[7] = tested on: MCF-7, breast cancer; assay: as above; type: cell-based; details: Homo sapiens, read-out: inhibition rates (%) MCF-7; for inhibition at 0.1 µM: MCF7, 0.1 μM; for inhibition at 1 µM: MCF7, 1 μM; for inhibition at 10 µM: MCF7, 10 μM
Procedure: as §2, §3, §4

Compound `COc1ccc(CNC(=O)[C@H](Cc2ccccc2)NC(=O)N[C@@H](CC(C)C)B(O)O)cc1` [Example 1, N-L-leucine borate-N′-(p-methoxy-benzylcarbamoyl)-L-phenylalanine-urea] has an inhibition at 0.2 µM [1] of 33.8%, an inhibition at 2 µM [1] of 86.8% and an inhibition at 20 µM [1] of 93.6%. It also gave an inhibition at 0.2 µM [2] of 40.9%, an inhibition at 2 µM [2] of 87.9% and an inhibition at 20 µM [2] of 96.6%. The inhibition at 0.2 µM ([3]; rat liver 20S proteasome) was -6.55%, the inhibition at 2 µM ([3]; rat liver 20S proteasome) was 22.8% and the inhibition at 20 µM ([3]; rat liver 20S proteasome) was 35.5%. For the same compound, the inhibition at 0.1 µM [4] was 8.67%, the inhibition at 1 µM [4] was 28% and the inhibition at 10 µM [4] was 38.5%. For the same compound, the inhibition at 0.1 µM [5] was 1.44%, the inhibition at 1 µM [5] was 35.3% and the inhibition at 10 µM [5] was 50.2%. It also gave an inhibition at 0.1 µM [6] of 7.79%, an inhibition at 1 µM [6] of 14.9% and an inhibition at 10 µM [6] of 32%. The inhibition at 0.1 µM [7] was 1%, the inhibition at 1 µM [7] was 7.46% and the inhibition at 10 µM [7] was 22.9%.
In the case of `CC(C)C[C@H](NC(=O)[C@H](Cc1ccccc1)NC(=O)NCc1cnccn1)B(O)O` [Example 2, N-L-phenylalanyl-L-leucine borate-N′-pyrazin-2-ylmethylamine-urea], the IC50 [1] is reported as 50 nM, the IC50 [2] is reported as 790 nM and the IC50 [3] is reported as 11.4 µM.
Work on `CC(C)C[C@H](NC(=O)N[C@@H](Cc1ccccc1)C(=O)NCC1CCCO1)B(O)O` (stereo partly drawn) [Example 3, N-L-leucine borate-N′-(tetrahydrofuran-2-ylmethylcarbamoyl)-L-phenylalanine-urea] yielded an inhibition at 0.2 µM [1] of -20.8%, an inhibition at 2 µM [1] of 1.91% and an inhibition at 20 µM [1] of 68.6%. It also gave an inhibition at 0.2 µM [2] of 7.38%, an inhibition at 2 µM [2] of 40.8% and an inhibition at 20 µM [2] of 88.4%. The inhibition at 0.2 µM ([3]; rat liver 20S proteasome) was 16.9%, the inhibition at 2 µM ([3]; rat liver 20S proteasome) was 18.5% and the inhibition at 20 µM ([3]; rat liver 20S proteasome) was 35.9%. The inhibition at 0.1 µM [4] was 10.2%, the inhibition at 1 µM [4] was 14.2% and the inhibition at 10 µM [4] was 19.2%. For the same compound, the inhibition at 0.1 µM [5] was 5.55%, the inhibition at 1 µM [5] was 16.6% and the inhibition at 10 µM [5] was 14.9%. The inhibition at 0.1 µM [6] was 4.73%, the inhibition at 1 µM [6] was -4.01% and the inhibition at 10 µM [6] was 0.96%. For the same compound, the inhibition at 0.1 µM [7] was 3.24%, the inhibition at 1 µM [7] was 9.52% and the inhibition at 10 µM [7] was 9.37%.
`CC(C)C[C@H](NC(=O)N[C@@H](Cc1ccccc1)C(=O)Nc1cccc(OCc2ccccc2)c1)B(O)O` [Example 4, N-L-leucine borate-N′-(3-benzyloxy-phenylcarbamoyl)-L-phenylalanine-urea] showed an inhibition at 0.2 µM [1] of -14.2%, an inhibition at 2 µM [1] of 10.4% and an inhibition at 20 µM [1] of 77.7%. It also gave an inhibition at 0.2 µM [2] of 2.03%, an inhibition at 2 µM [2] of 2.19% and an inhibition at 20 µM [2] of 62.7%. For the same compound, the inhibition at 0.2 µM ([3]; rat liver 20S proteasome) was 6.92%, the inhibition at 2 µM ([3]; rat liver 20S proteasome) was 4.38% and the inhibition at 20 µM ([3]; rat liver 20S proteasome) was 36.2%. It also gave an inhibition at 0.1 µM [4] of 9.59%, an inhibition at 1 µM [4] of 11.3% and an inhibition at 10 µM [4] of 25.4%. The inhibition at 0.1 µM [5] was 6.4%, the inhibition at 1 µM [5] was 16.2% and the inhibition at 10 µM [5] was 31.1%. It also gave an inhibition at 0.1 µM [6] of 6.67%, an inhibition at 1 µM [6] of 4.64% and an inhibition at 10 µM [6] of 13.1%. It also gave an inhibition at 0.1 µM [7] of 6.46%, an inhibition at 1 µM [7] of 9.07% and an inhibition at 10 µM [7] of 9.93%.
Work on `CC(C)C[C@H](NC(=O)N[C@@H](Cc1ccccc1)C(=O)Nc1cnccn1)B(O)O` [Example 6, N-L-leucine borate-N′-(pyrazin-2-ylcarbamoyl)-L-phenylalanine-urea] yielded an inhibition at 0.2 µM [1] of -0.67%, an inhibition at 2 µM [1] of 44.7% and an inhibition at 20 µM [1] of 86.8%. For the same compound, the inhibition at 0.2 µM [2] was 17.4%, the inhibition at 2 µM [2] was 66.3% and the inhibition at 20 µM [2] was 93.8%. The inhibition at 0.2 µM ([3]; rat liver 20S proteasome) was -3.92%, the inhibition at 2 µM ([3]; rat liver 20S proteasome) was 2.41% and the inhibition at 20 µM ([3]; rat liver 20S proteasome) was 27.2%. The inhibition at 0.1 µM [4] was 1.74%, the inhibition at 1 µM [4] was 4.43% and the inhibition at 10 µM [4] was 16.9%. It also gave an inhibition at 0.1 µM [5] of -6.94%, an inhibition at 1 µM [5] of -3.91% and an inhibition at 10 µM [5] of 7.01%. For the same compound, the inhibition at 0.1 µM [6] was 4.88%, the inhibition at 1 µM [6] was 4.4% and the inhibition at 10 µM [6] was 8.98%. The inhibition at 0.1 µM [7] was 0.8%, the inhibition at 1 µM [7] was 1.9% and the inhibition at 10 µM [7] was 6.05%.
In the case of `COc1ccc(NC(=O)[C@H](Cc2ccccc2)NC(=O)N[C@@H](CC(C)C)B(O)O)cc1` [Example 8, N-L-leucine borate-N′-(p-methoxy-phenylcarbamoyl)-L-phenylalanine-urea], the inhibition at 0.2 µM [1] is reported as 2.87%, the inhibition at 2 µM [1] is reported as 59.7% and the inhibition at 20 µM [1] is reported as 89.4%. It also gave an inhibition at 0.2 µM [2] of 1.62%, an inhibition at 2 µM [2] of 7.36% and an inhibition at 20 µM [2] of 63.1%. It also gave an inhibition at 0.2 µM ([3]; rat liver 20S proteasome) of -1.39%, an inhibition at 2 µM ([3]; rat liver 20S proteasome) of 9.32% and an inhibition at 20 µM ([3]; rat liver 20S proteasome) of 30.6%. The inhibition at 0.1 µM [4] was 12.7%, the inhibition at 1 µM [4] was 13.4% and the inhibition at 10 µM [4] was 32.9%. For the same compound, the inhibition at 0.1 µM [5] was 1.01%, the inhibition at 1 µM [5] was 8.26% and the inhibition at 10 µM [5] was 39.2%. For the same compound, the inhibition at 0.1 µM [6] was 4.74%, the inhibition at 1 µM [6] was 5.62% and the inhibition at 10 µM [6] was 15.6%. The inhibition at 0.1 µM [7] was 4.54%, the inhibition at 1 µM [7] was 8.51% and the inhibition at 10 µM [7] was 16.4%.
`CC(C)C[C@H](NC(=O)[C@H](Cc1ccccc1)NC(=O)NCCc1ccccc1)B(O)O` [Example 25, N-L-phenylalanyl-L-leucine borate-N′-phenylethylamine-urea] gave an IC50 [1] of 20 nM, an IC50 [2] of 240 nM and an IC50 [3] of 1.05 µM.
`CC(C)C[C@H](NC(=O)[C@H](Cc1ccccc1)NC(=O)N(C)Cc1ccccc1)B(O)O` [Example 29, N-L-phenylalanyl-L-leucine borate-N′—(N-methyl-benzylamine)-urea] gave an IC50 [1] of 2 nM and an IC50 [3] of 0.19 µM.
For `Cc1cccc(CNC(=O)N[C@@H](Cc2ccccc2)C(=O)N[C@@H](CC(C)C)B(O)O)c1C` [Example 30, N-L-phenylalanyl-L-leucine borate-N′-2,3-dimethyl-benzylamine-urea], the IC50 [1] was 4 nM, the IC50 [2] was 130 nM and the IC50 [3] was 0.34 µM.
`CC(C)C[C@H](NC(=O)[C@H](Cc1ccccc1)NC(=O)NCc1cc(Cl)ccc1Cl)B(O)O` [Example 31, N-L-phenylalanyl-L-leucine borate-N′-2,5-dichloro-benzylamine-urea] gave an IC50 [1] of 40 nM, an IC50 [2] of 480 nM and an IC50 [3] of 0.53 µM.
`CC(C)C[C@H](NC(=O)[C@H](Cc1ccccc1)NC(=O)NCc1ccco1)B(O)O` [Example 33, N-L-phenylalanyl-L-leucine borate-N′-furan-2-ylmethylamine-urea] was tested, and the IC50 [1] was 20 nM, the IC50 [2] was 80 nM and the IC50 [3] was 5.32 µM.
In the case of `CC(C)C[C@H](NC(=O)[C@H](Cc1ccccc1)NC(=O)NCc1cccc([N+](=O)[O-])c1)B(O)O` [Example 36, N-L-phenylalanyl-L-leucine borate-N′-3-nitro-benzylamine-urea], the IC50 [1] is reported as 3 nM, the IC50 [2] is reported as 140 nM and the IC50 [3] is reported as 0.19 µM.
`CC(C)C[C@H](NC(=O)[C@H](Cc1ccccc1)NC(=O)N1CCc2ccccc2C1=O)B(O)O` [Example 37, N-(1-oxo-1,2,3,4-dihydroisoquinolin-2-ylformyl)-L-phenylalanyl-L-leucine borate] showed an IC50 [1] of 660 nM, an IC50 [2] of 1240 nM and an IC50 ([3]; rat liver 20S proteasome, read-out: IC50 (μM) T-L) greater than 20 µM.
